Like-named read-outs stand apart in the source and are kept apart here.
Test system: Mycosphaerella graminicola; Anamorph: Septoria tritici; Bayer Code SEPTTR
Assay: Leaf blotch of wheat, foliar fungicide treatment, one day protectant (1DP) or three day curative (3DC)
Format: in vivo, Septoria tritici on wheat plants (variety Yuma)
Conditions: Zymoseptoria tritici, rating of percent disease control
[1] = 24 h, one day protectant (1DP), read-out: SETTTR 1DP 25 ppm
[2] = 24 h, one day protectant (1DP), read-out: SEPTTR 1DP 100 ppm
[3] = 72 h, three day curative (3DC), read-out: SEPTTR 3DC 25 ppm
[4] = 72 h, three day curative (3DC), read-out: SEPTTR 3DC 100 ppm

| Compound | pest or weed control at 25 ppm [1] [%] | pest or weed control at 100 ppm [2] [%] | pest or weed control at 25 ppm [3] [%] | pest or weed control at 100 ppm [4] [%] |
| --- | --- | --- | --- | --- |
| COCCOC(=O)Oc1ncc(F)c(/N=C/N(C)C)n1 [Compound 389] | 76 to 100 | 76 to 100 | 76 to 100 | 76 to 100 |
| ONc1nc(OCc2ccccc2)ncc1F [Compound 390] | 76 to 100 | 76 to 100 | 76 to 100 | 76 to 100 |
| Nc1nc(OCc2ccccc2I)ncc1F [Compound 391] | 51 to 75 | 76 to 100 | 26 to 50 | 76 to 100 |
| Nc1nc(OCc2ccoc2)ncc1F [Compound 392] | 76 to 100 | 76 to 100 | 76 to 100 | 76 to 100 |
| CC(Oc1ncc(F)c(N)n1)c1ccc([N+](=O)[O-])cc1 (stereo not shown) [Compound 393] | 26 to 50 | 76 to 100 | 26 to 50 | 76 to 100 |
| O=C(Cc1ccccc1)Nc1nc(OCc2ccc(F)cc2)ncc1F [Compound 394] | 76 to 100 | 76 to 100 | 76 to 100 | 76 to 100 |
| CN(N)c1nc(OCc2ccccc2)ncc1F [Compound 395] | 0 to 25 | 0 to 25 | 26 to 50 | 51 to 75 |
| Cn1nc(COc2ncc(F)c(N)n2)c2ccccc21 [Compound 396] | 76 to 100 | 76 to 100 | 76 to 100 | 76 to 100 |
| CNN(C)c1nc(OCc2ccc(F)cc2)ncc1F [Compound 397] | 0 to 25 | 0 to 25 | 0 to 25 | 0 to 25 |
| Cc1ccc(COc2ncc(F)c(NC(=O)NCc3ccccc3F)n2)cc1 [Compound 398] | 0 to 25 | 0 to 25 | 0 to 25 | 26 to 50 |
| Cc1c(N)cccc1COc1ncc(F)c(N)n1 [Compound 399] | 51 to 75 | 76 to 100 | 76 to 100 | 76 to 100 |
| CCOc1ccc(COc2ncc(F)c(N)n2)cc1 [Compound 400] | 76 to 100 | 76 to 100 | 76 to 100 | 76 to 100 |
| Nc1nc(OCc2ccnc3ccccc23)ncc1F [Compound 401] | 76 to 100 | 76 to 100 | 76 to 100 | 76 to 100 |
| Cc1ccc(COc2ncc(F)c(/N=C/N3CCOCC3)n2)cc1 [Compound 402] | 76 to 100 | 76 to 100 | 76 to 100 | 76 to 100 |
| CCC(C)C(Oc1ncc(F)c(N)n1)c1ccc(F)cc1 (stereo not shown) [Compound 403] | 76 to 100 | 76 to 100 | 26 to 50 | 76 to 100 |
| Nc1nc(OCc2cc(Cl)cc(Cl)c2)ncc1F [Compound 404] | 76 to 100 | 76 to 100 | 76 to 100 | 76 to 100 |
| COc1ccccc1COc1ncc(F)c(/N=C/N(C)C)n1 [Compound 405] | 76 to 100 | 76 to 100 | 76 to 100 | 76 to 100 |
| Nc1nc(OC(c2ccccc2)c2ccc(F)cc2)ncc1F (stereo not shown) [Compound 406] | 76 to 100 | 76 to 100 | 76 to 100 | 76 to 100 |
| COc1cccc(COc2ncc(F)c(N3CCCCC3)n2)c1 [Compound 407] | 0 to 25 | 0 to 25 | 0 to 25 | 0 to 25 |
| Nc1nc(OCc2ccco2)ncc1F [Compound 409] | 76 to 100 | 76 to 100 | 76 to 100 | 76 to 100 |
| Cn1ccc(COc2ncc(F)c(NCOCc3ccccc3)n2)n1 [Compound 412] | 0 to 25 | 76 to 100 | 0 to 25 | 51 to 75 |
| Nc1nc(OC(=O)c2ccccc2)ncc1F [Compound 413] | 76 to 100 | 76 to 100 | 76 to 100 | 76 to 100 |

Reference: patent publication US9204653B2, “5-fluoro pyrimidine derivatives” (DOW AGROSCIENCES LLC, priority 2008, dated 2015)
